From PMC10301092, “New Insights into the Opioid Analgesic Profile of cis-(−)-N-Normetazocine-derived Ligands” (Molecules, 2023)
Values joined by “and” are separate entries in the source; they are usually repeats but may differ in a detail not shown here. Equal entries are not always repeated. Where two headings read alike, the source gives them in different places.

What was measured:
sigma-1 receptor (σ1R) [1] = biological target: T1, sigma-1 receptor (σ1R) (Homo sapiens, UniProt Q99720); experiment: σ1R radioligand binding assay
T1 sequence (Q99720 whole entry, species assumed): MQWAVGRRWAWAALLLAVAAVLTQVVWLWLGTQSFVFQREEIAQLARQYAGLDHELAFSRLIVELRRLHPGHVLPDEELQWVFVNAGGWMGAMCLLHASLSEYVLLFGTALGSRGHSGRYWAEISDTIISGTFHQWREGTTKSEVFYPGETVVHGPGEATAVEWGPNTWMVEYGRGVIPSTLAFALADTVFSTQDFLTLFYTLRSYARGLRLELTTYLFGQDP
Protocol: (§1) The radioligand binding assays and the data analysis were performed as previously reported [24].

μ opioid receptor (MOR) [2] = biological target: T2, μ opioid receptor (MOR) (Homo sapiens, UniProt P35372); experiment: MOR radioligand binding assay
T2 sequence (P35372 whole entry, species assumed): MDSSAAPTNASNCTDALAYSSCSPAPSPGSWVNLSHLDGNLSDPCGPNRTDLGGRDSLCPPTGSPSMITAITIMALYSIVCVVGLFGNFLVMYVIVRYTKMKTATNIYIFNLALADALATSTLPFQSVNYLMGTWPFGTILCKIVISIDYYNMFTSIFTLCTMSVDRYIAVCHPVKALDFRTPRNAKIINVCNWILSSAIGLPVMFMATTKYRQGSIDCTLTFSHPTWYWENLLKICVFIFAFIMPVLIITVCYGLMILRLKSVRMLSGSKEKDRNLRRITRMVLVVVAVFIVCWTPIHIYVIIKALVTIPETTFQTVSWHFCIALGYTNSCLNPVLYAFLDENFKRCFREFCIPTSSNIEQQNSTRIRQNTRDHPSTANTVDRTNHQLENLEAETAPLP

δ opioid receptor (DOR) = δ opioid receptor (DOR) (Homo sapiens, UniProt P41143); experiment: DOR radioligand binding assay
δ opioid receptor (DOR), sequence (P41143 whole entry): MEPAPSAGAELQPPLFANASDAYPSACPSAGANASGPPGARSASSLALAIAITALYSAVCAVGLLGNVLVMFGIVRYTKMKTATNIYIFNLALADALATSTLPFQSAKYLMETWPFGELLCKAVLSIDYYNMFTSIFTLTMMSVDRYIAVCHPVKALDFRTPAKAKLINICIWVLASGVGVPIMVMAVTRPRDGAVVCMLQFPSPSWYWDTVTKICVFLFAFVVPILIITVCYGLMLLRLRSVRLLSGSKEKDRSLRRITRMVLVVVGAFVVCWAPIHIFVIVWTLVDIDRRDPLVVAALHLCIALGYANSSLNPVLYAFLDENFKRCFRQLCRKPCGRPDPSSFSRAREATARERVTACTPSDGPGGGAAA

κ opioid receptor (KOR) [3] = biological target: T3, κ opioid receptor (KOR) (Homo sapiens, UniProt P41145); experiment: KOR radioligand binding assay
T3 sequence (P41145 whole entry): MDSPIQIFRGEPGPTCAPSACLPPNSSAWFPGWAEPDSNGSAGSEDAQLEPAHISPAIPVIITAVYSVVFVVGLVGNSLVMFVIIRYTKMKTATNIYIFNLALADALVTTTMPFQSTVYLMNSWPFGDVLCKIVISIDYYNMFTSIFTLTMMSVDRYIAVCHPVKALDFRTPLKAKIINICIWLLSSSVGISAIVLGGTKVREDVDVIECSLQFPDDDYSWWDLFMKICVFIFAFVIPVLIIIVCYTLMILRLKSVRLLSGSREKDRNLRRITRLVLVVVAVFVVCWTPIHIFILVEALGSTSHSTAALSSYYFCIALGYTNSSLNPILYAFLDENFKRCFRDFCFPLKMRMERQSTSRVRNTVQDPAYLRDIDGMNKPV

sigma-2 receptor (σ2R) [4] = biological target: T4, sigma-2 receptor (σ2R) (Homo sapiens, UniProt Q5BJF2); experiment: σ2R radioligand binding assay
T4 sequence (Q5BJF2 whole entry): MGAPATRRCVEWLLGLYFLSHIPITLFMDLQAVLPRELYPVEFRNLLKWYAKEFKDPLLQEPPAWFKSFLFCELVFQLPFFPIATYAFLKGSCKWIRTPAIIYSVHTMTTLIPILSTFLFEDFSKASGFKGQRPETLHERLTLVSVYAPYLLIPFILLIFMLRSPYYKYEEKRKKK
Protocol: as §1

MOR = biological target: T5, MOR (Mus musculus, UniProt P42866); experiment: MVD assay, Ke with naloxone / against DAMGO (MOR); type: cell-based; conditions: for functional profile at MOR: MVD, result in words; for Ke ± SEM (nM) Naloxone (MOR): Ke of naloxone against the listed agonist in isolated MVD, single-dose method, n = 5–9
T5 construct: vasa deferentia were removed from the mice; from tissue; host or cells: vas deferens of male NMRI mice
T5 sequence (P42866 whole entry): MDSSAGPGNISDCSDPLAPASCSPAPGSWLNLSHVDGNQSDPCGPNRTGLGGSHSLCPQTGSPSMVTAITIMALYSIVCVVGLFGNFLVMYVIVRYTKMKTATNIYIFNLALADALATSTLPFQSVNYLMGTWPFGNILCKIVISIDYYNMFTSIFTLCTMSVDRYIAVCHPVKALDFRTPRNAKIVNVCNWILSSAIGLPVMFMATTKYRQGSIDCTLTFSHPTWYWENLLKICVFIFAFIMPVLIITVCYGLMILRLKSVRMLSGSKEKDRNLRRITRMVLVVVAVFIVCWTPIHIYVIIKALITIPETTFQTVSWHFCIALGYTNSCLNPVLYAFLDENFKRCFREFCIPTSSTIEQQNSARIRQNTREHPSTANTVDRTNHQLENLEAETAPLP
Protocol: (§2) Isolated mouse vas deferens. The preparation of MVD was carried out as previously described by Hughes et al. [25] with minor modifications. Briefly, vasa deferentia were removed from the mice and unsheathed from the surrounding fat, connective tissue, and blood vessels. […] The upper end of the isolated organ was attached to a transducer using a thread and connected to a computer via an amplifier (PowerLab 4/20, ADInstruments, Castle Hill, NSW, Australia). The resting tension was adjusted to 0.1 g. Electrical field stimulation was applied through trains of 10 Hz with 10 rectangular impulses at a 1 ms pulse width, 9 V/cm (i.e., supramaximal intensity), repeated with 0.1 Hz (Stimulator 88, Grass Medical Instruments, Quincy, MA, USA).
(§3) Data analysis. The efficacy of each test compound to inhibit electrically evoked contraction was measured as the percentage change from baseline. […] Data are presented as the mean ± SEM. Ke values were calculated using dose ratio and the single-dose method [26]. Statistical analysis was performed with one-way ANOVA, followed by the Newman–Keuls post hoc test.

mouse vas deferens (MVD) = experiment: Isolated mouse vas deferens (MVD): inhibition of electrically evoked contractions; type: cell-based; conditions: for IC50: 50% inhibitory concentration on electrically evoked contractions of isolated MVD, n = 5–9
Protocol: Animals. Male NMRI mice (Toxicoop Zrt., Budapest, Hungary) weighing 35–45 g were kept in groups in a temperature- and humidity-controlled room under a 12 h light/dark cycle and with food and water available ad libitum. Each animal was used for one experiment.
Isolated mouse vas deferens. The preparation of MVD was carried out as previously described by Hughes et al. with minor modifications. Briefly, vasa deferentia were removed from the mice and unsheathed from the surrounding fat, connective tissue, and blood vessels. They were then suspended between an upper (ring) and a lower (straight) electrode positioned at 5.5 cm, in 5 mL organ baths containing Krebs solution (concentrations in mM: NaCl, 118.0; NaHCO3, 25.0; KCl, 4.7; KH2PO4, 1.2; glucose, 11.0; CaCl2, 2.5; and MgSO4, 1.2) aerated with a gas mixture of 95% O2 and 5% CO2 and at a constant temperature of 36 °C. The upper end of the isolated organ was attached to a transducer using a thread and connected to a computer via an amplifier (PowerLab 4/20, ADInstruments, Castle Hill, NSW, Australia). The resting tension was adjusted to 0.1 g. Electrical field stimulation was applied through trains of 10 Hz with 10 rectangular impulses at a 1 ms pulse width, 9 V/cm (i.e., supramaximal intensity), repeated with 0.1 Hz (Stimulator 88, Grass Medical Instruments, Quincy, MA, USA).
Experimental paradigms. The experimental design of MVD required a 50 min equilibration period under electrical field stimulation, during which Krebs solution was changed every 5 min. After the equilibration period, test compounds were added cumulatively, allowing a minimum of 2 min between doses. To determine the test compounds’ dissociation constant, Ke, vasa deferentia were preincubated with the antagonist naloxone, and without washing a single concentration of the agonist test, the compound was added.
Data analysis. The efficacy of each test compound to inhibit electrically evoked contraction was measured as the percentage change from baseline. […] Data are presented as the mean ± SEM. Ke values were calculated using dose ratio and the single-dose method. […]

KOR = biological target: T6, KOR (Mus musculus, UniProt P33534); experiment: MVD assay, Ke with nor-BNI (KOR); type: cell-based; conditions: Ke of nor-BNI against the listed agonist in isolated MVD; n = 5–9
T6 construct: vasa deferentia were removed from the mice; from tissue; host or cells: vas deferens of male NMRI mice
T6 sequence (P33534 whole entry): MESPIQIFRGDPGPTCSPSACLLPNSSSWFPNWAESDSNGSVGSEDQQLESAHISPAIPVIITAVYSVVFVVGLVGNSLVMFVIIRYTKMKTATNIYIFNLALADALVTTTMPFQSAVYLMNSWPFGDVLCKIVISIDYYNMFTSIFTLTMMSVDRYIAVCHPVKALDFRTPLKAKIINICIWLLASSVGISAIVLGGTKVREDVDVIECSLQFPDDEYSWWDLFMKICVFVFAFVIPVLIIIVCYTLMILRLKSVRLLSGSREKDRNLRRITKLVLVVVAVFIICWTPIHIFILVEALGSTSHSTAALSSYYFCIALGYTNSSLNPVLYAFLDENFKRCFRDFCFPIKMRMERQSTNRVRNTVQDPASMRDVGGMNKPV
Protocol: as §2, §3

Male Swiss CD1 mice = experiment: Thermal acute pain model (radiant heat tail-flick test); type: in vivo, mouse
Protocol: Thermal acute pain model (tail-flick test). Male Swiss CD1 mice (Envigo Laboratories, S. Pietro al Natisone (UD)) weighing 25–30 g were housed at six per cage, kept at a constant room temperature (25 ± 1 °C), under a 12:12 h light-and-dark cycle with food and water ad libitum. Each mouse was used for only one experiment. […] The radiant heat tail-flick test consists of irradiation of the lower third of the tail with an infrared source (Ugo Basile, Comerio, Italy). The day before the experiment, performed at room temperature (25 ± 1 °C), mice were habituated to the procedure for measuring the nociception threshold. The basal predrug latency was established between 3 and 6 s and was calculated as the average of the first three measurements, which were performed at 5 min intervals. A cutoff latency of 15 s was established to minimize damage to the tail. All tested compounds were dissolved in pyrogen-free isotonic saline (Baxter Healthcare, Deerfield, IL, USA) and DMSO (5%) and were administered to mice i.p. Post-treatment tail-flick latencies (TFLs) were determined at 15, 30, 45, 60, and 90 min after i.p. injection.

Male Wistar rats = experiment: Inflammatory pain model (CFA-evoked hyperalgesia, Randall–Selitto paw pressure threshold); type: in vivo, rat; conditions: s.c.
Protocol: Inflammatory pain model (CFA-evoked hyperalgesia). Male Wistar rats (190–250 g) (Toxicoop Zrt., Budapest, Hungary) under brief isoflurane (Willy Rüsch GmbH, Böblingen, Germany) anesthesia received i.pl. injection of 0.15 mL complete Freund’s adjuvant (CFA) (source), a water-in-oil emulsion of killed mycobacterium, into the right hind paw. The experimental procedures were performed as described previously.
Experimental paradigms of CFA-evoked hyperalgesia. The measurement of the effect of the test compound was carried out 4 days following i.pl. CFA injection as described previously. Briefly, the baseline (pretest compound) of the paw pressure threshold (PPT) of both inflamed and noninflamed paws was determined. Next, the drug or vehicle was s.c. administered at a volume of 5 mL/kg body weight. Then, the response threshold to mechanical pressure stimulation of inflamed and noninflamed paws was given as paw pressure thresholds (PPTs) and measured at 30 and 60 min post administration using an arbitrary cutoff weight of twice the baseline.

DOR = biological target: T7, DOR (Mus musculus, UniProt P32300); experiment: MVD assay, Ke with naltrindole (DOR); type: cell-based; conditions: Ke of naltrindole against the listed agonist in isolated MVD; n = 5–9
T7 construct: vasa deferentia were removed from the mice; from tissue; host or cells: vas deferens of male NMRI mice
T7 sequence (P32300 whole entry): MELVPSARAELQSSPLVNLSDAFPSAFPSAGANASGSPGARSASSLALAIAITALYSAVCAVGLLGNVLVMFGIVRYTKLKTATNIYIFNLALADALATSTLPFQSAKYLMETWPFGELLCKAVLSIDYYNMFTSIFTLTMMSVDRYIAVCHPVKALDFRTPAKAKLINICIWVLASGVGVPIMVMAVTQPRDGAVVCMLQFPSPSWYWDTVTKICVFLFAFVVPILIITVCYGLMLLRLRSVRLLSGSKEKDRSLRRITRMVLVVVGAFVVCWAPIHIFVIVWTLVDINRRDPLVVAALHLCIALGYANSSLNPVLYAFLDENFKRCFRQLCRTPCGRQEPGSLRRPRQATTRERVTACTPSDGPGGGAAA
Protocol: as §2
Experimental paradigms. The experimental design of MVD required a 50 min equilibration period under electrical field stimulation, during which Krebs solution was changed every 5 min. […]
Data analysis. The efficacy of each test compound to inhibit electrically evoked contraction was measured as the percentage change from baseline. […] Ke values were calculated using dose ratio and the single-dose method [26]. […]

κ opioid receptor (KOR) [5] = biological target: T3, κ opioid receptor (KOR); conditions: read-out: Ki (nM) ± SD KOR; cited from earlier work
sigma-1 receptor (σ1R) [6] = biological target: T1, sigma-1 receptor (σ1R); conditions: read-out: Ki (nM) ± SD σ1R; cited from earlier work
sigma-2 receptor (σ2R) [7] = biological target: T4, sigma-2 receptor (σ2R); conditions: read-out: Ki (nM) ± SD σ2R; cited from earlier work
μ opioid receptor (MOR) [8] = biological target: T2, μ opioid receptor (MOR); conditions: read-out: Ki (nM) ± SD MOR; cited from earlier work
[9] = mean ± SD of at least two experiments in duplicate, read-out: Ki (nM) ± SD MOR
[10] = mean ± SD of at least two experiments in duplicate, read-out: Ki (nM) ± SD DOR
[11] = mean ± SD of at least two experiments in duplicate, read-out: Ki (nM) ± SD KOR

CN1CCN(CCc2ccc(Cl)c(Cl)c2)CC1 [BD-1063, reference compound]
Ki (sigma-1 receptor (σ1R) [1]; mean ± SD of at least two experiments in duplicate, read-out: Ki (nM) ± SD σ1R): 14 ± 2.7 nM

C[C@H]1[C@H]2Cc3ccc(O)cc3[C@]1(C)CCN2CCC(=O)Nc1ccccc1N [Compound 3, N-(2-aminophenyl)-3-((2R,6R,11R)-8-hydroxy-6,11-dimethyl-1,4,5,6-tetrahydro-2,6-methanobenzo[d]azocin-3(2H)-yl)propanamide]
Ki (μ opioid receptor (MOR) [2]): 5.96 ± 0.08 nM | Ki (δ opioid receptor (DOR)): 155 ± 1.5 nM | Ki (κ opioid receptor (KOR) [3]): 93 ± 0.63 nM | Ki (sigma-1 receptor (σ1R) [1]): > 10000 nM | Ki (sigma-2 receptor (σ2R) [4]): > 10000 nM | functional profile at MOR (MOR): antagonist

C[C@@H]1[C@@H]2Cc3ccc(O)cc3[C@@]1(C)CCN2CCC(=O)Nc1ccccc1N [Compound 4, N-(2-aminophenyl)-3-((2S,6S,11S)-8-hydroxy-6,11-dimethyl-1,4,5,6-tetrahydro-2,6-methanobenzo[d]azocin-3(2H)-yl)propanamide]
Ki (μ opioid receptor (MOR) [2]): 408 ± 11 nM | Ki (δ opioid receptor (DOR)): 3120 ± 73 nM | Ki (κ opioid receptor (KOR) [3]): 154 ± 6 nM | Ki (sigma-1 receptor (σ1R) [1]): 729 ± 168 nM | Ki (sigma-2 receptor (σ2R) [4]): > 10000 nM

C[C@H]1[C@H]2Cc3ccc(O)cc3[C@]1(C)CCN2CCCC(=O)Nc1ccccc1N [Compound 5, N-(2-aminophenyl)-4-((2R,6R,11R)-8-hydroxy-6,11-dimethyl-1,4,5,6tetrahydro-2,6-methanobenzo[d]azocin-3(2H)-yl)butanamide]
Ki (μ opioid receptor (MOR) [2]; [9]): 479 ± 10 nM | Ki (δ opioid receptor (DOR); [10]): 1030 ± 16 nM | Ki (κ opioid receptor (KOR) [3]; [11]): 970 ± 21 nM | Ki (sigma-1 receptor (σ1R) [1]): > 10000 nM | Ki (sigma-2 receptor (σ2R) [4]): > 10000 nM

C[C@@H]1[C@@H]2Cc3ccc(O)cc3[C@@]1(C)CCN2CCCC(=O)Nc1ccccc1N [Compound 6, N-(2-aminophenyl)-4-((2S,6S,11S)-8-hydroxy-6,11-dimethyl-1,4,5,6tetrahydro-2,6-methanobenzo[d]azocin-3(2H)-yl)butanamide]
Ki (μ opioid receptor (MOR) [2]; [9]): 810 ± 15 nM | Ki (δ opioid receptor (DOR); [10]): 4190 ± 60 nM | Ki (κ opioid receptor (KOR) [3]; [11]): 2455 ± 11 nM | Ki (sigma-1 receptor (σ1R) [1]): 857 ± 212 nM | Ki (sigma-2 receptor (σ2R) [4]): > 10000 nM

C[C@H]1[C@H]2Cc3ccc(O)cc3[C@]1(C)CCN2CCC(=O)Nc1ccccn1 [Compound 7, 3-((2R,6R,11R)-8-hydroxy-6,11-dimethyl-1,4,5,6-tetrahydro-2,6-methanobenzo[d]azocin-3(2H)-yl)-N-(pyridin-2-yl)propanamide]
Ki (μ opioid receptor (MOR) [2]): 1.49 ± 0.24 nM | Ki (δ opioid receptor (DOR)): 138 ± 5 nM | Ki (κ opioid receptor (KOR) [3]): 64 ± 7 nM | Ki (sigma-1 receptor (σ1R) [1]): > 10000 nM | Ki (sigma-2 receptor (σ2R) [4]): > 10000 nM | IC50 (mouse vas deferens (MVD); Mus musculus): 66.88 ± 0.38 nM | effect on electrically evoked MVD smooth muscle contractions (mouse vas deferens (MVD); result in words): concentration-dependent inhibitory effect | Ke ± SEM (nM) Naloxone (MOR) (MOR): 2.42 ± 0.45 nM | functional profile at MOR (MOR): agonist | Ke ± SEM (nM) Nor-BNI (KOR) (KOR): 68.18 ± 15.98 nM | effect on mean tail-flick latency (Male Swiss CD1 mice; i.p., 3, 4, and 5 mg/kg, compared with vehicle group): increased the mean tail-flick latency | time of highest antinociceptive effect (Male Swiss CD1 mice; tail-flick, after i.p. injection): 45 min and 30 to 45 min | restoring hyperalgesia of inflamed paws (PPT) (Male Wistar rats; 5000 and 2500 µg/kg, at 30 and 60 min): effective | effect on noninflamed PPT (Male Wistar rats; in certain doses, compared with vehicle): significantly increase the noninflamed PPT | restoring hyperalgesia of inflamed paws (PPT) (Male Wistar rats; lower doses of the range 625–5000 µg/kg): tendency of antinociceptive effect

C[C@@H]1[C@@H]2Cc3ccc(O)cc3[C@@]1(C)CCN2CCC(=O)Nc1ccccn1 [Compound 8, 3-((2S,6S,11S)-8-hydroxy-6,11-dimethyl-1,4,5,6-tetrahydro-2,6-methanobenzo[d]azocin-3(2H)-yl)-N-(pyridin-2-yl)propanamide]
Ki (μ opioid receptor (MOR) [2]): 563 ± 23 nM | Ki (δ opioid receptor (DOR)): > 10000 nM | Ki (κ opioid receptor (KOR) [3]): 1380 ± 20 nM | Ki (sigma-1 receptor (σ1R) [1]): 2510 ± 737 nM | Ki (sigma-2 receptor (σ2R) [4]): > 10000 nM

CC1(C)SSC(C)(C)[C@@H](NC(=O)[C@@H](N)Cc2ccc(O)cc2)C(=O)NCC(=O)N[C@@H](Cc2ccccc2)C(=O)N[C@H]1C(=O)O [DPDPE]
Ke ± SEM (nM) Nor-BNI (KOR) (KOR): 2.57 ± 1.81 nM

CC[C@@]12CCN(CC3CC3)C(C(=O)c3ccc(O)cc31)[C@@H]2C [EKC, reference compound]
IC50 (mouse vas deferens (MVD)): 14.1 ± 0.69 nM | Ke ± SEM (nM) Naloxone (MOR) (MOR): 8.82 ± 0.52 nM | Ke ± SEM (nM) Naltrindole (DOR) (DOR): 11.47 ± 5.35 nM | Ke ± SEM (nM) Nor-BNI (KOR) (KOR): 1.76 ± 0.35 nM

C[C@H]1[C@H]2Cc3ccc(O)cc3[C@]1(C)CCN2CCC(=O)Nc1ccccc1 [LP1]
Ki Ratios DOR/MOR (μ opioid receptor (MOR) [2]; ratio of Ki DOR to Ki MOR): 35.1 | Ki Ratios KOR/MOR (μ opioid receptor (MOR) [2]; ratio of Ki KOR to Ki MOR): 132.5 | Ki (κ opioid receptor (KOR) [5]): 110 ± 6 nM | Ki (sigma-1 receptor (σ1R) [6]): 149 ± 4 nM | Ki (sigma-2 receptor (σ2R) [7]): 1680 nM

CCC(=O)N(CC)c1ccccc1 [N-ethyl-N-phenyl-propanamide]
Ki (μ opioid receptor (MOR) [8]): 136 nM

CCC(=O)N(C)c1ccccc1 [N-methyl-N-phenyl-propanamide]
Ki (μ opioid receptor (MOR) [8]): 65 nM
